Assay results from publication PMC3961306, “Comparison of the Cancer Gene Targeting and Biochemical Selectivities of All Targeted Kinase Inhibitors Approved for Clinical Use” (PLoS ONE, 2014).
Where two headings read alike, the source gives them in different places.

How the values were obtained:
[1] = target: panel of more than 300 wild-type and mutant kinases (313 kinase panel) (Homo sapiens, UniProt P00519); assay: Kinase profiling in a biochemical assay panel (mobility shift assays and ELISA), %-inhibition at 1 μM; selectivity entropy; settings: 1 µM
[2] = target: panel of more than 300 wild-type and mutant kinases (313 kinase panel) (Homo sapiens, UniProt P35968); assay: as above
[3] = target: panel of more than 300 wild-type and mutant kinases (313 kinase panel) (Homo sapiens, UniProt P15056, V600E); assay: as above
[4] = target: panel of more than 300 wild-type and mutant kinases (313 kinase panel) (Homo sapiens, UniProt P15056); assay: as above
[5] = system: forty-four human cancer cell lines; assay: Cell proliferation assay (ATPlite, 72 hours) in the 44 cell line Oncolines panel; type: cell-based; settings: Homo sapiens
[6] = target: panel of more than 300 wild-type and mutant kinases (313 kinase panel) (Homo sapiens, UniProt P11362, V561M); assay: Kinase profiling in a biochemical assay panel (mobility shift assays and ELISA), %-inhibition at 1 μM; selectivity entropy; settings: kinase FGFR1(V561M); compound at 1 μM
[7] = target: panel of more than 300 wild-type and mutant kinases (313 kinase panel) (Homo sapiens, UniProt P09619); assay: as above; settings: kinase PDGFRβ; 1 μM
[8] = target: panel of more than 300 wild-type and mutant kinases (313 kinase panel) (Homo sapiens, UniProt P00533, L858R/T790M); assay: as above; settings: kinase EGFR(T790M/L858R); compound at 1 μM
[9] = target: panel of more than 300 wild-type and mutant kinases (313 kinase panel) (Homo sapiens, UniProt Q9UM73, R1275Q); assay: as above; settings: kinase ALK(R1275Q); 1 μM compound
[10] = target: panel of more than 300 wild-type and mutant kinases (313 kinase panel) (Homo sapiens, UniProt P07947, T348I); assay: as above; settings: kinase YES(T348I); compound at 1 μM
[11] = target: panel of more than 300 wild-type and mutant kinases (313 kinase panel) (Homo sapiens, UniProt P22612); assay: as above; settings: kinase PKACγ; 1 μM
[12] = A 172, read-out: cell panel IC50, A-172
[13] = A498, read-out: cell panel IC50, A-498
[14] = AU565, read-out: cell panel IC50, AU-565
[15] = HCT-116, read-out: cell panel IC50, HCT-116
[16] = K562, read-out: cell panel IC50, K-562
[17] = LS174T, read-out: cell panel IC50, LS 174T

For C#Cc1cccc(Nc2ncnc3cc(OCCOC)c(OCCOC)cc23)c1 [erlotinib], the “%-inhibition, ABL” value [1] was 64%, the “%-inhibition of KDR” value ([2]; 1 µM) was 74% and the “%-inhibition, BRAF(V600E)” value ([3]; 1 µM) was 8%. For the same compound, the “%-inhibition, BRAF” value ([4]; 1 µM) was 14%, the IC50 ([5]; 4-4 cell, read-out: cell panel IC50, J82) was 4.54 µM and the IC50 ([5]; 4-4 cell, read-out: cell panel IC50, PA-1) was 4.07 µM. For the same compound, the IC50 ([5]; 4-4 cell, read-out: cell panel IC50, SJCRH30) was greater than 31.6 µM, the IC50 ([5]; 4-4 cell, read-out: cell panel IC50, SR) was 4.23 µM and the IC50 ([5]; 769-P, read-out: cell panel IC50, 769-P) was 20.2 µM. The IC50 ([5]; 786-0, read-out: cell panel IC50, 786-0) was 6.13 µM, the IC50 [5, 12] was greater than 31.6 µM and the IC50 ([5]; A204, read-out: cell panel IC50, A-204) was 5.16 µM. The IC50 [5, 13] was 4.97 µM, the IC50 ([5]; A-375, read-out: cell panel IC50, A375) was 5.05 µM and the IC50 ([5]; ACHN, read-out: cell panel IC50, ACHN) was 1.37 µM. It also gave an IC50 ([5]; AN3-CA, read-out: cell panel IC50, AN3 CA) of 4.29 µM, an IC50 [5, 14] of 2.74 µM and an IC50 ([5]; BT-20, read-out: cell panel IC50, BT-20) greater than 31.6 µM. For the same compound, the IC50 ([5]; BXPC-3, read-out: cell panel IC50, BxPC-3) was 4.21 µM, the IC50 ([5]; C-33-A, read-out: cell panel IC50, C-33 A) was 0.865 µM and the IC50 ([5]; CAL-27, read-out: cell panel IC50, CAL 27) was 0.256 µM. The IC50 ([5]; CCRF-CEM, read-out: cell panel IC50, CCRF-CEM) was greater than 31.6 µM, the IC50 ([5]; DLD-1, read-out: cell panel IC50, DLD-1) was 3.87 µM and the IC50 ([5]; FaDu, read-out: cell panel IC50, FaDu) was 1.16 µM. The IC50 ([5]; HCT-15, read-out: cell panel IC50, HCT-15) was 6.31 µM, the IC50 [5, 15] was 8.12 µM and the IC50 ([5]; Hs-578T, read-out: cell panel IC50, Hs 578T) was 7.12 µM. It also gave an IC50 ([5]; Jurkat E6.1, read-out: cell panel IC50, Jurkat E6.1) of 22.6 µM, an IC50 [5, 16] of 7.05 µM and an IC50 [5, 17] of 3.27 µM. It also gave an IC50 ([5]; LoVo, read-out: cell panel IC50, LoVo) of 2.24 µM, an IC50 ([5]; MG-63, read-out: cell panel IC50, MG-63) of 13.3 µM and an IC50 ([5]; MOLT-4, read-out: cell panel IC50, MOLT-4) of 6.34 µM. It also gave an IC50 ([5]; MeWo, read-out: cell panel IC50, MeWo) of 9.02 µM, an IC50 ([5]; NCI-H82, read-out: cell panel IC50, NCI-H82) of 20.1 µM and an IC50 ([5]; NCI-H460, read-out: cell panel IC50, NCI-H460) of 5.53 µM. For the same compound, the IC50 ([5]; OVCAR-3, read-out: cell panel IC50, OVCAR-3) was 5.46 µM, the IC50 ([5]; RPMI-7951, read-out: cell panel IC50, RPMI-7951) was greater than 31.6 µM and the IC50 ([5]; SHP77, read-out: cell panel IC50, SHP-77) was greater than 31.6 µM. For the same compound, the IC50 ([5]; SK-N-AS, read-out: cell panel IC50, SK-N-AS) was 5.84 µM, the IC50 ([5]; SW48, read-out: cell panel IC50, SW48) was greater than 31.6 µM and the IC50 ([5]; SW480, read-out: cell panel IC50, SW480) was greater than 31.6 µM. For the same compound, the IC50 ([5]; SW-620, read-out: cell panel IC50, SW620) was 6.41 µM, the IC50 ([5]; U2OS, read-out: cell panel IC50, U-2 OS) was greater than 31.6 µM and the IC50 ([5]; U-87 MG, 72 h, read-out: IC50 in cell proliferation assay (table S5 cellpanel data)) was greater than 31.6 µM.
With CC(=O)Nc1cccc(-n2c(=O)n(C3CC3)c(=O)c3c(Nc4ccc(I)cc4F)n(C)c(=O)c(C)c32)c1 [trametinib] the “%-inhibition of KDR” value ([2]; kinase KDR, compound at 1 μM) was -0.549%, the “%-inhibition of FGFR1(V561M)” value [6] was -3.3% and the “%-inhibition of PDGFRβ” value [7] was 3.44%. The “%-inhibition, BRAF(V600E)” value ([3]; kinase BRAF(V600E), 1 μM compound) was 37%, the “%-inhibition of EGFR(T790M/L858R)” value [8] was -6.51% and the “%-inhibition, ALK(R1275Q)” value [9] was -1.83%. For the same compound, the “%-inhibition of YES(T348I)” value [10] was -2.82%, the “%-inhibition, BRAF” value ([4]; kinase BRAF, 1 μM compound) was 78% and the “%-inhibition of PKACγ” value [11] was 2%. It also gave an IC50 [5, 12] of 0.11 µM, an IC50 ([5]; A204, cell line A-204, read-out: cell panel IC50, A-204) of 0.631 µM and an IC50 [5, 13] of 22.3 µM. The IC50 ([5]; A549, read-out: cell panel IC50, A-549) was 0.057 µM, the IC50 ([5]; A-375, cell line A375, read-out: cell panel IC50, A375) was 0.013 µM and the IC50 ([5]; A-427, read-out: cell panel IC50, A-427) was 0.017 µM. It also gave an IC50 [5, 14] of 19.4 µM, an IC50 ([5]; BT-549, read-out: cell panel IC50, BT-549) of 17.7 µM and an IC50 [5, 15] of 0.035 µM. The IC50 [5, 16] was 0.037 µM, the IC50 [5, 17] was 0.037 µM and the IC50 ([5]; SHP77, cell line SHP-77, read-out: cell panel IC50, SHP-77) was greater than 31.6 µM. For the same compound, the IC50 ([5]; SW-620, cell line SW620, read-out: cell panel IC50, SW620) was 0.00135 µM, the IC50 ([5]; U2OS, cell line U-2 OS, read-out: cell panel IC50, U-2 OS) was 0.311 µM and the IC50 ([5]; cell line J82, read-out: cell panel IC50, J82) was greater than 31.6 µM. It also gave an IC50 ([5]; cell line PA-1, read-out: cell panel IC50, PA-1) of 0.436 µM, an IC50 ([5]; cell line SJCRH30, read-out: cell panel IC50, SJCRH30) of 0.783 µM and an IC50 ([5]; cell line SR, read-out: cell panel IC50, SR) of 0.95 µM. For the same compound, the IC50 ([5]; U-87 MG cell line, ATPlite, 72 hours, read-out: IC50 in cell proliferation assay (table S5 cellpanel data)) was 0.229 µM, the IC50 ([5]; cell line 769-P, read-out: cell panel IC50, 769-P) was 0.085 µM and the IC50 ([5]; cell line 786-0, read-out: cell panel IC50, 786-0) was 25.8 µM. For the same compound, the IC50 ([5]; cell line ACHN, read-out: cell panel IC50, ACHN) was 0.496 µM, the IC50 ([5]; cell line AN3 CA, read-out: cell panel IC50, AN3 CA) was 13.6 µM and the IC50 ([5]; cell line BT-20, read-out: cell panel IC50, BT-20) was greater than 31.6 µM. For the same compound, the IC50 ([5]; cell line BxPC-3, read-out: cell panel IC50, BxPC-3) was 0.029 µM, the IC50 ([5]; cell line C-33 A, read-out: cell panel IC50, C-33 A) was 0.008 µM and the IC50 ([5]; cell line CAL 27, read-out: cell panel IC50, CAL 27) was 0.058 µM. For the same compound, the IC50 ([5]; cell line CCRF-CEM, read-out: cell panel IC50, CCRF-CEM) was 28 µM, the IC50 ([5]; cell line DLD-1, read-out: cell panel IC50, DLD-1) was 0.493 µM and the IC50 ([5]; cell line FaDu, read-out: cell panel IC50, FaDu) was 0.014 µM. The IC50 ([5]; cell line HCT-15, read-out: cell panel IC50, HCT-15) was 2.04 µM, the IC50 ([5]; cell line Hs 578T, read-out: cell panel IC50, Hs 578T) was 0.371 µM and the IC50 ([5]; cell line Jurkat E6.1, read-out: cell panel IC50, Jurkat E6.1) was greater than 31.6 µM. It also gave an IC50 ([5]; cell line LoVo, read-out: cell panel IC50, LoVo) of 0.008 µM, an IC50 ([5]; cell line MG-63, read-out: cell panel IC50, MG-63) of 0.119 µM and an IC50 ([5]; cell line MOLT-4, read-out: cell panel IC50, MOLT-4) of 19.3 µM. The IC50 ([5]; cell line MeWo, read-out: cell panel IC50, MeWo) was 0.033 µM, the IC50 ([5]; cell line NCI-H82, read-out: cell panel IC50, NCI-H82) was 24.7 µM and the IC50 ([5]; cell line NCI-H460, read-out: cell panel IC50, NCI-H460) was 0.014 µM. It also gave an IC50 ([5]; cell line OVCAR-3, read-out: cell panel IC50, OVCAR-3) greater than 31.6 µM, an IC50 ([5]; cell line RPMI-7951, read-out: cell panel IC50, RPMI-7951) of 0.01 µM and an IC50 ([5]; cell line SK-N-AS, read-out: cell panel IC50, SK-N-AS) of 0.00952 µM. It also gave an IC50 ([5]; cell line SW48, read-out: cell panel IC50, SW48) of 0.0012 µM and an IC50 ([5]; cell line SW480, read-out: cell panel IC50, SW480) of 0.574 µM.
